Measured values as given in PubChem BioAssay (NCI).
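Abbreviation: GI50, concentration required for 50% inhibition of growth. TGI marks complete inhibition of growth.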

How the values were obtained:
Assay in all cases: inhibition of tumour cell growth, NCI panel, 384-well format
786-0 renal = test system: 786-0 renal
A498 renal = test system: A498 renal
A549 NSCLC = test system: A549 NSCLC
ACHN renal = test system: ACHN renal
BT-549 breast = test system: BT-549 breast
CAKI-1 renal = test system: CAKI-1 renal
CCRF-CEM leukemia = test system: CCRF-CEM leukemia
COLO 205 colon = test system: COLO 205 colon
DU-145 prostate = test system: DU-145 prostate
HCC-2998 colon = test system: HCC-2998 colon
HCT-116 colon = test system: HCT-116 colon
HCT-15 colon = test system: HCT-15 colon
HL-60(TB) leukemia = test system: HL-60(TB) leukemia
HOP-62 NSCLC = test system: HOP-62 NSCLC
HOP-92 NSCLC = test system: HOP-92 NSCLC
HT29 colon = test system: HT29 colon
IGROV1 ovarian = test system: IGROV1 ovarian
K-562 leukemia = test system: K-562 leukemia
KM12 colon = test system: KM12 colon
LOX IMVI melanoma = test system: LOX IMVI melanoma
M14 melanoma = test system: M14 melanoma
MALME-3M melanoma = test system: MALME-3M melanoma
MCF7 breast = test system: MCF7 breast
MDA-MB-231 breast = test system: MDA-MB-231 breast
MDA-MB-435 melanoma = test system: MDA-MB-435 melanoma
MDA-MB-468 breast = test system: MDA-MB-468 breast
MOLT-4 leukemia = test system: MOLT-4 leukemia
NCI-H226 lung = test system: NCI-H226 lung
NCI-H23 lung = test system: NCI-H23 lung
NCI-H322M lung = test system: NCI-H322M lung
NCI-H460 NSCLC = test system: NCI-H460 NSCLC
NCI-H522 lung = test system: NCI-H522 lung
NCI/ADR-RES ovarian = test system: NCI/ADR-RES ovarian
OVCAR-3 ovarian = test system: OVCAR-3 ovarian
OVCAR-4 ovarian = test system: OVCAR-4 ovarian
OVCAR-5 ovarian = test system: OVCAR-5 ovarian
OVCAR-8 ovarian = test system: OVCAR-8 ovarian
PC-3 prostate = test system: PC-3 prostate
RPMI-8226 leukemia = test system: RPMI-8226 leukemia
RXF 393 renal = test system: RXF 393 renal
SF-268 CNS = test system: SF-268 CNS
SF-295 CNS = test system: SF-295 CNS
SF-539 CNS = test system: SF-539 CNS
SK-MEL-2 melanoma = test system: SK-MEL-2 melanoma
SK-MEL-28 melanoma = test system: SK-MEL-28 melanoma
SK-MEL-5 melanoma = test system: SK-MEL-5 melanoma
SK-OV-3 ovarian = test system: SK-OV-3 ovarian
SN12C renal = test system: SN12C renal
SNB-19 CNS = test system: SNB-19 CNS
SR leukemia = test system: SR leukemia
SW-620 colon = test system: SW-620 colon
T-47D breast = test system: T-47D breast
TK-10 renal = test system: TK-10 renal
U251 glioblastoma = test system: U251 glioblastoma
UACC-257 melanoma = test system: UACC-257 melanoma
UACC-62 melanoma = test system: UACC-62 melanoma
UO-31 renal = test system: UO-31 renal

SMILES: C=CC(=O)N1C[C@@H]2CCOc3c(Cl)c(-c4c(O)cccc4F)c(F)c4ncnc(c34)N2C[C@H]1C
- GI50 ([…]-0 renal): 1.73 µM
- TGI (786-0 renal): 3.91 µM
- GI50 (A498 renal): 2.27 µM
- TGI (A498 renal): 8.26 µM
- GI50 (A549 NSCLC): 2.24 µM
- TGI (A549 NSCLC): 6.75 µM
- GI50 (ACHN renal): 2.58 µM
- TGI (ACHN renal): 7.93 µM
- GI50 (BT-549 breast): 1.26 µM
- TGI (BT-549 breast): 2.97 µM
- GI50 (CAKI-1 renal): 1.56 µM
- TGI (CAKI-1 renal): 6.43 µM
- GI50 (CCRF-CEM leukemia): 1.6 µM
- TGI (CCRF-CEM leukemia): 3.05 µM
- GI50 (COLO 205 colon): 2.01 µM
- TGI (COLO 205 colon): 4.52 µM
- GI50 (DU-145 prostate): 1.95 µM
- TGI (DU-145 prostate): 5.12 µM
- GI50 (HCC-2998 colon): 1.57 µM
- TGI (HCC-2998 colon): 3.15 µM
- GI50 (HCT-116 colon): 2.2 µM
- TGI (HCT-116 colon): 5.95 µM
- GI50 (HCT-15 colon): 2.63 µM
- TGI (HCT-15 colon): 10.6 µM
- GI50 (HL-60(TB) leukemia): 1.29 µM
- TGI (HL-60(TB) leukemia): 2.62 µM
- GI50 (HOP-62 NSCLC): 0.0309 µM
- TGI (HOP-62 NSCLC): 4.75 µM
- GI50 (HOP-92 NSCLC): 2.95 µM
- TGI (HOP-92 NSCLC): 9.36 µM
- GI50 (HT29 colon): 2.54 µM
- TGI (HT29 colon): 6.84 µM
- GI50 (IGROV1 ovarian): 1.7 µM
- TGI (IGROV1 ovarian): 4.64 µM
- GI50 (K-562 leukemia): 1.74 µM
- TGI (K-562 leukemia): 3.68 µM
- GI50 (KM12 colon): 1.88 µM
- TGI (KM12 colon): 4.27 µM
- GI50 (LOX IMVI melanoma): 4.18 µM
- TGI (LOX IMVI melanoma): 11.4 µM
- GI50 (M14 melanoma): 2.62 µM
- TGI (M14 melanoma): 10.1 µM
- GI50 (MALME-3M melanoma): 1.93 µM
- TGI (MALME-3M melanoma): 7.88 µM
- GI50 (MCF7 breast): 3.1 µM
- TGI (MCF7 breast): 11.6 µM
- GI50 (MDA-MB-231 breast): 2.61 µM
- TGI (MDA-MB-231 breast): 8.92 µM
- GI50 (MDA-MB-435 melanoma): 1.91 µM
- TGI (MDA-MB-435 melanoma): 3.96 µM
- GI50 (MDA-MB-468 breast): 1.68 µM
- TGI (MDA-MB-468 breast): 3.62 µM
- GI50 (MOLT-4 leukemia): 1.16 µM
- TGI (MOLT-4 leukemia): 2.4 µM
- GI50 (NCI-H226 lung): 2.15 µM
- TGI (NCI-H226 lung): 5.78 µM
- TGI (NCI-H23 lung): 0.0227 µM
- GI50 (NCI-H322M lung): 6.66 µM
- TGI (NCI-H322M lung): 19.4 µM
- GI50 (NCI-H460 NSCLC): 2.34 µM
- TGI (NCI-H460 NSCLC): 5.34 µM
- GI50 (NCI-H522 lung): 1.63 µM
- TGI (NCI-H522 lung): 3.54 µM
- GI50 (NCI/ADR-RES ovarian): 1.76 µM
- TGI (NCI/ADR-RES ovarian): 3.53 µM
- GI50 (OVCAR-3 ovarian): 1.55 µM
- TGI (OVCAR-3 ovarian): 3.04 µM
- GI50 (OVCAR-4 ovarian): 1.96 µM
- TGI (OVCAR-4 ovarian): 4.75 µM
- GI50 (OVCAR-5 ovarian): 4.71 µM
- TGI (OVCAR-5 ovarian): 17 µM
- GI50 (OVCAR-8 ovarian): 1.64 µM
- TGI (OVCAR-8 ovarian): 3.06 µM
- GI50 (PC-3 prostate): 3.04 µM
- TGI (PC-3 prostate): 10.6 µM
- GI50 (RPMI-8226 leukemia): 0.232 µM
- TGI (RPMI-8226 leukemia): 1.28 µM
- GI50 (RXF 393 renal): 0.0601 µM
- TGI (RXF 393 renal): 0.407 µM
- GI50 (SF-268 CNS): 2.1 µM
- TGI (SF-268 CNS): 4.86 µM
- GI50 (SF-295 CNS): 7.48 µM
- TGI (SF-295 CNS): 20.3 µM
- GI50 (SF-539 CNS): 1.8 µM
- TGI (SF-539 CNS): 3.45 µM
- GI50 (SK-MEL-2 melanoma): 1.22 µM
- TGI (SK-MEL-2 melanoma): 2.63 µM
- GI50 (SK-MEL-28 melanoma): 2.36 µM
- TGI (SK-MEL-28 melanoma): 8.43 µM
- GI50 (SK-MEL-5 melanoma): 1.62 µM
- TGI (SK-MEL-5 melanoma): 3.41 µM
- GI50 (SK-OV-3 ovarian): 2.19 µM
- TGI (SK-OV-3 ovarian): 8.03 µM
- GI50 (SN12C renal): 1.96 µM
- TGI (SN12C renal): 4.23 µM
- GI50 (SNB-19 CNS): 3.76 µM
- TGI (SNB-19 CNS): 16 µM
- GI50 (SR leukemia): 1.07 µM
- TGI (SR leukemia): 2.28 µM
- GI50 (SW-620 colon): 2.27 µM
- TGI (SW-620 colon): 4.07 µM
- GI50 (T-47D breast): 1.89 µM
- TGI (T-47D breast): 5.47 µM
- GI50 (TK-10 renal): 2.4 µM
- TGI (TK-10 renal): 10.7 µM
- GI50 (U251 glioblastoma): 2.43 µM
- TGI (U251 glioblastoma): 7.66 µM
- GI50 (UACC-257 melanoma): 1.29 µM
- TGI (UACC-257 melanoma): 6.42 µM
- GI50 (UACC-62 melanoma): 1.41 µM
- TGI (UACC-62 melanoma): 5.5 µM
- GI50 (UO-31 renal): 1.92 µM
- TGI (UO-31 renal): 9.16 µM
